Experimental findings from patent US7514408B1, “β-secretase enzyme compositions and methods” (Elan Pharmaceuticals, Inc., priority 1999, dated 2009) are described below.

The test concerns the target β-secretase (Homo sapiens, UniProt P56817). The test can be described thus: MBP C125 assay of peptide inhibitors. It is filed as biochemical. As to the method: The substrates for these studies were synthesized using solid support sequential synthesis as described in Example 7. Assays of the inhibitory activity were performed in the MBP C125 assays described in Example 4 and IC50 values were generated for the heptameric inhibitors are reported in Table 9. Preferred inhibitors of the invention are those compounds in Group III, particularly preferred inhibitors are in Group II and the most preferred are the inhibitors of Group I.
MBP-C125 Assay: Two recombinantly-expressed proteins (FIG. 19 and FIG. 20) were used as substrates for β-secretase. The preferred substrate (FIG. 19) was expressed in E. coli as a fusion protein of the last 125 amino acids of APP fused to the carboxy-terminal end of maltose-binding protein (MBP), using commercially available vectors from New England Biolabs. […]
Recombinant proteins were generated with both the wild-type APP sequence (MBP-C125 WT) at the cleavage site ( . . . Val-Lys-Met-Asp-Ala . . . ). […] This amino-terminal fragment can be recognized on Western blots with the same Ab, or, quantitatively, using an anti-MBP capture-biotinylated SW-192 reporter sandwich format, as shown in FIG. 19. […]
Microtiter 96-well plates were coated with purified anti-MBP antibody (@ 5-μg/ml), followed by blocking with human serum albumin. […] Plates were read in a Cytofluor 2350 Fluorescent Measurement System. […]

Numbered stars: 1 amine (or outer) side, 2 acyl side, 3 side chain; on linkers, the order of the positions; unused ones are H or OH. Square brackets hold non-standard residues; d marks the D form. Peptide text beside a SMILES is read from it. Sta = CC(C)C[C@H](N)[C@@H](O)CC(=O)O; X1 = CC(C)CC(N[*:1])C(O)C(=O)[*:2]

Chain of β-secretase (P56817 46-501): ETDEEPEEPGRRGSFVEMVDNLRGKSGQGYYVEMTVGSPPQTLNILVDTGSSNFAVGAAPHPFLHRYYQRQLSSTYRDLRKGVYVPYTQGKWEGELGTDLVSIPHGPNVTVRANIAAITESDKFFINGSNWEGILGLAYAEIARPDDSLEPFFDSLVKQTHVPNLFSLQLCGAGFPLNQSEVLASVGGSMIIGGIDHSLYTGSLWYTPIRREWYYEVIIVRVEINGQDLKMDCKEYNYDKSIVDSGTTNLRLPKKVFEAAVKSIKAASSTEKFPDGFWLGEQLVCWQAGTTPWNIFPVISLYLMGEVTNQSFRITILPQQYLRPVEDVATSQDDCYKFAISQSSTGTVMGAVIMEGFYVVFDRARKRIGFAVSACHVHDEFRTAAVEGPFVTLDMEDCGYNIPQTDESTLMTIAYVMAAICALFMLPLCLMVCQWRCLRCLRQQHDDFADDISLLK

`CSCC[C@H](NC(=O)[C@@H](NC(C)=O)C(C)C)C(=O)NC(CC(C)C)C(O)C(=O)N[C@H](C(=O)N[C@@H](C)C(=O)N[C@@H](CCC(=O)O)C(=O)N[C@@H](Cc1ccccc1)C(=O)O)C(C)C` (some centres unmarked) [Example 7P] (Ac-VM[X1]VAEF-OH): the IC50 (MBP C125 assay, heptamer peptides, read-out: IC50 Group) was in the range of 1 to 10 µM. Take “NH2-KTEEISEVNVAEF-COOH (H-KTEEISEVN[Sta]VAEF-OH) [P10-P4′sta D→V]”: the “inhibitor potency relative to the valine substitution alone” value (fold more potent than P1' valine substituted peptide) is given as “about 100 times”.

One may read the IC50 as the midpoint of a concentration-inhibition curve.
